Data: publication PMC4303209, “A novel phosphatidylinositol 3-kinase (PI3K) inhibitor directs a potent FOXO-dependent, p53-independent cell cycle arrest phenotype characterized by the differential induction of a subset of FOXO-regulated genes” (Breast Cancer Research : BCR, 2014)
Entries after “also recorded” stand apart in the source; their conditions may differ.

Test system: total p53
Assay: Immunoblot of total p53
Description: Sub-confluent cells were incubated under the conditions indicated in each figure and washed twice with phosphate-buffered saline (PBS) prior to lysis. RIPA lysis buffer was added (50 mM TrisHCl, 150 mM NaCl, 1% NP-40, 2 mM Na3VO4, 100 mM NaF, 20 mM Na4P2O7 and 1x protease inhibitor cocktail (Roche Molecular Biochemicals, Indianapolis, IN, USA). The membranes were incubated overnight for total AKT, phospho-serine-473-AKT, total p53 (DO1) (Santa Cruz Biotechnology, Dallas, TX, USA), phospho-threonine 32-FOXO3a (Merck Millipore, Darmstadt, Germany) and α-tubulin (Sigma-Aldrich). Secondary antibodies used were anti-mouse, goat or rabbit immunoglobulin G (IgG)-horseradish peroxidase (HRP) (Santa Cruz Biotechnology) as appropriate. Visualisation of bands was achieved using ChemiDoc imaging system (BioRad Laboratories Inc, Hercules, CA, USA) after membrane treatment with Ecl + (Amersham, Little Chalfont, UK).

Compound	accumulation of total p53
Cn1ncc2c(N3CCOCC3)nc(-c3cccc(O)c3)nc21 [ETP-45658]	little to no p53 accumulation; also recorded: neither ETP-45658 (nor PI-103) triggered an accumulation
Oc1cccc(-c2nc(N3CCOCC3)c3oc4ncccc4c3n2)c1 [PI-103]	neither ETP-45658 (nor PI-103) triggered an accumulation
